{
  "source": "patent US7871981B2",
  "about": "“Inhibition of cell motility, angiogenesis, and metastasis” (The United States of America as represented by the …, priority 1999, dated 2011)",
  "key": {"B16-luc cells": {"tested_on": "B16-luc cells", "experiment": "Tail vein model (induced metastasis), B16-luc, bioluminescence imaging", "type": "in vivo, SCID/beige mice", "conditions": "single 24 h pre-treatment, three week period", "method": "B16-luc cells were pre-treated for 24 hrs with 1 micromolar C90, then trypsinized, washed in PBS and spun down at 650 rpm to be resuspended in HBSS at the appropriate cell density for injection (1×10^6 cells). Injection was boosted with 10 micromolar C90. Cell where then injected in the dorsal tail vein of severe combined immunodeficient (SCID)/beige mice (Taconic Inc., Germantown, N.Y.).\n(§1) Cells prepared for xenograft injections were pretreated with C-90 for 24 h. Cells were injected in to mice (5 per group) by either tail vein (B16-luc, induced metastasis model) or subcutaneously (PC3M-luc, spontaneous metastasis model). Imaging of the PC3M cell metastases in lungs ex vivo (FIG. 14A)) correlated with earlier scans of intact animals (data not shown). Units are proportional to photons emitted within a defined time interval (total flux)."}, "HMVE cells": {"tested_on": "HMVE cells", "experiment": "HMVE cell migration, modified Boyden chamber", "type": "cell-based, human", "method": "The migration assay of HUVE and HMEC-1 cells in modified Boyden chambers was adapted from previously described procedures (Murohara et al., Thromb. Vasc. Biol., 19: 1156-61 (1999), Malinda et al., FASEB J., 13: 53-62 (1999)). In brief, Biocoat Cell Environment control inserts (8 micron pore size; Becton Dickinson) were coated with 0.1% gelatin (Sigma) for at least 1 hour at 37° C. and air dried. Lower chambers contained 0.7 ml RPMI+0.1% BSA, to which 20 ng/ml HGF and/or 300 nM Grb2 inhibitors were added. Cells were pre-treated with the indicated concentrations of Grb2 inhibitors for 18-24 hours, trypsinized, washed twice in RPMI+0.1% BSA, added to upper chambers (5×10^4 cells/well) with or without inhibitors in a final volume of 0.5 ml, and incubated for 4 h at 37° C. Cells on the upper surface of each filter were removed with a cotton swab, while cells that had traversed to the bottom surface of the filter were fixed and stained using Diff-Quik (Dade Diagnostics) and counted using a 10× objective. Mean values from 4 randomly selected fields (1×1.4 mm) were calculated for each of triplicate wells per experimental condition. Shown in FIG. 6 is the ratio of growth factor-treated to control migrating cells designated on the y-axis as “Migration (Fold Increase)” or as the mean number of cells per optical field in FIGS. 8-11."}, "PC3M-luc cells": {"tested_on": "PC3M-luc cells", "experiment": "Subcutaneous tumor model (spontaneous metastasis), PC3M-luc xenograft, bioluminescence imaging", "type": "in vivo, SCID/beige mice", "conditions": "cells pre-treated 24 h with 1 micromolar", "method": "PC3M-luc cells were pre-treated for 24 hrs with 1 micromolar C90, then trypsinized, washed in PBS and spun down at 650 rpm to be resuspended in HBSS at the appropriate cell density for injection (1×10^6 cells). Injection was boosted with 10 micromolar C-90. Cell where then injected in the right flank SCID/beige mice (Taconic Inc., Germantown, N.Y.). On indicated days, mice were injected with 150 mg/kg of D-luciferin (potassium salt, Xenogen Corp., Alameda, Calif.) and placed for imaging in the In vivo Imaging System (Xenogen) with total imaging time of 1 or 5 minutes. Total body bioluminescence was quantified by integrating the photonic flux (photons per second) through a region of interest drawn around each mouse.\nas §1"}, "HUVE cells": {"tested_on": "HUVE cells", "experiment": "HUVE cell proliferation", "type": "cell-based, human", "method": "HUVE or HMVE cells were seeded per triplicate in type I collagen-coated 48-well plates (Biocoat) (3000 cells/well) in […] of complete EGM-Bullet Kit medium (BioWhittaker, Walkersville, Md.), allowed to attach for 4 hr and incubated overnight with or without the indicated concentrations of peptide 2. The cultures were rinsed twice in serum-free medium and incubated with EBM medium (BioWhittaker) supplemented with 50 μg/ml heparin, 50 μg/ml ascorbic acid and 10% FCS. After either 4 days (HUVE) or 5 days (HMVE), cells were harvested with trypsin/EDTA and counted with an hemocytometer. The mean number of cells per ml was calculated from 3 independent measures for each of triplicate wells per experimental condition and compared to controls using the Student's unpaired t-test. Results set forth in FIG. 12 are described as the ratio of growth factor-treated to control proliferating cells designated on the y-axis as “Proliferation (Fold Increase)”."}, "PC3M cells": {"tested_on": "PC3M cells", "experiment": "PC3M cell invasion across Matrigel-coated Transwell filters", "type": "cell-based, human", "conditions": "increasing concentrations, with or without HGF 40 ng/ml, 30 h", "method": "After serum deprivation and pre-treatment for 16 hrs, PC3M cells were assayed in cell culture inserts (BD Biosciences), 8 micron-pore-size polyethylene terephthalate membrane with Falcon cell culture inserts (Becton Dickinson). Pre-treated cells were trypsinized and counted; a total of 1×10^5 cells in serum free medium (500 microliters) were added to the upper chamber, and 500 microliters of serum free media with the relative concentration of C90 and HGF were added to the lower chamber. […] Then the cells in the inside of the upper chamber were removed with a cotton swab and cell on the other side of the membrane were fixed and stained using Diff-Quick (Dade Diagnostics, Deerfield, Ill.). Photographs of […] random fields were taken and cells were counted by bright field microscopy using a 10× objective. Mean values from four randomly selected fields (1×1.4 mm) were calculated for each of triplicate wells per experimental condition.\nFIG. 13B depicts bar graphs of PC3M cell invasion across Matrigel-coated Transwell filters in the presence (filled bars) or absence (unfilled bars) of HGF (40 ng/ml, 30 h)."}},
  "data": [
    {"smiles": "NC(=O)C[C@H](NC(=O)C1(NC(=O)[C@H](Cc2ccc(C(C(=O)O)C(=O)O)cc2)NC(=O)C(=O)O)CCCCC1)C(=O)NCCCc1cccc2ccccc12", "note": "[peptide 2, (N-oxalyl-4-malonyl)-Phe-Ac6c-Asn-NH-(3-naphthalen-1-yl-propyl)]", "values": [
      {"measurement": "ability to form lung metastases relative to untreated control cells", "setting": "B16-luc cells", "value": "significantly reduced ability to form lung metastases"},
      {"measurement": "VEGF-induced cell migration", "setting": "HMVE cells; VEGF", "value": "significantly (p<0.001) reverted"},
      {"measurement": "cell migration induced by HGF", "setting": "HMVE cells; peptide 300 nM, HGF 0-50 ng/ml", "value": "abolished"},
      {"measurement": "abolition of the effect of the optimal concentration of bFGF", "setting": "HMVE cells; peptide 300 nM, bFGF 5 ng/ml", "value": 72, "unit": "%"},
      {"measurement": "biphasic stimulatory activity of bFGF on migration", "setting": "HMVE cells; peptide 300 nM, bFGF 0.2-50 ng/ml", "value": "significantly (p<0.001) inhibited"},
      {"measurement": "primary tumor growth (mass, volume ex vivo)", "setting": "PC3M-luc cells", "value": "did not affect primary tumor growth"},
      {"measurement": "metastatic rate (lung metastases ex vivo, total flux) relative to untreated control cells", "setting": "PC3M-luc cells; injection boosted with 10 micromolar", "value": "significantly reduced the metastatic rate"},
      {"measurement": "HGF- VEGF-induced HUVE cell proliferation", "setting": "HUVE cells; peptide 30 nM", "value": "failed to significantly (p=0.05) inhibit"},
      {"measurement": "bFGF-dependent HUVE cell proliferation", "setting": "HUVE cells; peptide 30 nM, p<0.0001", "value": "inhibited"},
      {"measurement": "serum-dependent HUVE cell proliferation", "setting": "HUVE cells; peptide 30 nM, p<0.001", "value": "inhibited"},
      {"measurement": "HGF- VEGF-induced HUVE cell proliferation (cell counts)", "setting": "HUVE cells; peptide 300 nM", "value": "significant (p<0.0001) reduction in cell counts"},
      {"measurement": "PC3M cell invasiveness in vitro", "setting": "PC3M cells", "value": "dose-dependent inhibition"}
    ]}
  ]
}
